For test [1], the target named is T1, Amine oxidase [flavin-containing] A (Homo sapiens, UniProt P21397).
T1 sequence (P21397 whole entry): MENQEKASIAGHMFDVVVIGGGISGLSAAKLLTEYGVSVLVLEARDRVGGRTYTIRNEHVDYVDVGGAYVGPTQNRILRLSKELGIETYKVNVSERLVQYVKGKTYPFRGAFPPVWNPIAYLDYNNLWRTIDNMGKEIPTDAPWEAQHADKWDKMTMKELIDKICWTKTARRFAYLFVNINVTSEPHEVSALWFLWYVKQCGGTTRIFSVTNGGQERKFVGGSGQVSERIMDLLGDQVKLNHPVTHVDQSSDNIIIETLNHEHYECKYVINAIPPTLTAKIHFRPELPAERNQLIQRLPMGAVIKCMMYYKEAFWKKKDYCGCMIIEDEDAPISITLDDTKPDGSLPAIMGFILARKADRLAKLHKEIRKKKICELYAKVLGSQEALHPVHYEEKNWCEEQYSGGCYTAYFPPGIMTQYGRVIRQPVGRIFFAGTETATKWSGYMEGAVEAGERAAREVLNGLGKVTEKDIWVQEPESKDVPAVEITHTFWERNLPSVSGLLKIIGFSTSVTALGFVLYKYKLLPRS
Type of test: functional.

Another test deals with Mu-type opioid receptor (Homo sapiens, UniProt P35372). Nature of the test: biochemical. Type of test: functional.
Mu-type opioid receptor, sequence (P35372 whole entry): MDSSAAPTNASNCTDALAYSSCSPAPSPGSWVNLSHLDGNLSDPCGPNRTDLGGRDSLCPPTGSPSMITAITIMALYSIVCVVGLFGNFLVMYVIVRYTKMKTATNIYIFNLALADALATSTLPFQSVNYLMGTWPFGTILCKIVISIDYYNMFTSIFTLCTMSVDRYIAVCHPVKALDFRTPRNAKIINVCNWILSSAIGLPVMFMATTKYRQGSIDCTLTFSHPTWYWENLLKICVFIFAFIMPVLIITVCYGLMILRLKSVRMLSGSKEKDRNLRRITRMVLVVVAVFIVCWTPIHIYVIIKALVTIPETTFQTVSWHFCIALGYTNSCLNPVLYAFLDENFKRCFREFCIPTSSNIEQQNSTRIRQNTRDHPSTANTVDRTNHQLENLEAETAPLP
A further test concerns the target T2, Thromboxane A2 receptor (Homo sapiens, UniProt P21731).
T2 sequence (P21731 whole entry): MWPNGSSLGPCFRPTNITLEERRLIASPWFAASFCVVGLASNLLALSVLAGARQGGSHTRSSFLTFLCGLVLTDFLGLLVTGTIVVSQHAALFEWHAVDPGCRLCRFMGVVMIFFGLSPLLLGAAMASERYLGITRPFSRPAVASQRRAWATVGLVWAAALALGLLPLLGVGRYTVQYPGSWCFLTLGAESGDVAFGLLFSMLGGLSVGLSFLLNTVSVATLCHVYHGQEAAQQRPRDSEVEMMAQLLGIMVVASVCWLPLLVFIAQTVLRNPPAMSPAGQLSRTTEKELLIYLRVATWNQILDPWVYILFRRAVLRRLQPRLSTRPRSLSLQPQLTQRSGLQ

Test [2] concerns the target T3, 5-hydroxytryptamine receptor 1A (Homo sapiens, UniProt P08908).
T3 sequence (P08908 whole entry): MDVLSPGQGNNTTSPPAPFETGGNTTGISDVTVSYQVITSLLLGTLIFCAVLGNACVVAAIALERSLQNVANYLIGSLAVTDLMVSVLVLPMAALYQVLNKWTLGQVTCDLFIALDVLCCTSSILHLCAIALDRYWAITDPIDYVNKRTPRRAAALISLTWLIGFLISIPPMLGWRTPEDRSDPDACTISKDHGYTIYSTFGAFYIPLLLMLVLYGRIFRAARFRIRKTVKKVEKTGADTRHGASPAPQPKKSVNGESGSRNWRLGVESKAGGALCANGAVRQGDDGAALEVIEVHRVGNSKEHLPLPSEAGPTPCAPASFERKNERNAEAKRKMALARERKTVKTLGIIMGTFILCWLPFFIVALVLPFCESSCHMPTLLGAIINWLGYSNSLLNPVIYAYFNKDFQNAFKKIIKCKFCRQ
Type of test: functional, cell-based.

The target in test [3] is T4, 5-hydroxytryptamine receptor 3A (Homo sapiens, UniProt P46098).
T4 sequence (P46098 whole entry): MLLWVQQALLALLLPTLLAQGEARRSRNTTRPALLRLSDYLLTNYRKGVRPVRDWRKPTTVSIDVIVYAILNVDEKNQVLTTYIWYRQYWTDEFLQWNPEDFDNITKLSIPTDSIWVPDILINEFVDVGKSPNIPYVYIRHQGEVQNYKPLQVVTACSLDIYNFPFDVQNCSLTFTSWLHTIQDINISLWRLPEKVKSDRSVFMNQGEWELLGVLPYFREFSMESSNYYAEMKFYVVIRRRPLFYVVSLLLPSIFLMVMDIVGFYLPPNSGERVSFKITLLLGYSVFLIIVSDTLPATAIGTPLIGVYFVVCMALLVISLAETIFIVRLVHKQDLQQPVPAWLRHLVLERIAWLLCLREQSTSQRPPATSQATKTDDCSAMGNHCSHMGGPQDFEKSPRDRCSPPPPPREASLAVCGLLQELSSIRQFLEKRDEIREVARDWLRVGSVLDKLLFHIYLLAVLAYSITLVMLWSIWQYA
It counts as functional.

The target in test [4] is Neuronal acetylcholine receptor subunit alpha-4 (Homo sapiens, UniProt P43681).
Neuronal acetylcholine receptor subunit alpha-4, sequence (P43681 whole entry): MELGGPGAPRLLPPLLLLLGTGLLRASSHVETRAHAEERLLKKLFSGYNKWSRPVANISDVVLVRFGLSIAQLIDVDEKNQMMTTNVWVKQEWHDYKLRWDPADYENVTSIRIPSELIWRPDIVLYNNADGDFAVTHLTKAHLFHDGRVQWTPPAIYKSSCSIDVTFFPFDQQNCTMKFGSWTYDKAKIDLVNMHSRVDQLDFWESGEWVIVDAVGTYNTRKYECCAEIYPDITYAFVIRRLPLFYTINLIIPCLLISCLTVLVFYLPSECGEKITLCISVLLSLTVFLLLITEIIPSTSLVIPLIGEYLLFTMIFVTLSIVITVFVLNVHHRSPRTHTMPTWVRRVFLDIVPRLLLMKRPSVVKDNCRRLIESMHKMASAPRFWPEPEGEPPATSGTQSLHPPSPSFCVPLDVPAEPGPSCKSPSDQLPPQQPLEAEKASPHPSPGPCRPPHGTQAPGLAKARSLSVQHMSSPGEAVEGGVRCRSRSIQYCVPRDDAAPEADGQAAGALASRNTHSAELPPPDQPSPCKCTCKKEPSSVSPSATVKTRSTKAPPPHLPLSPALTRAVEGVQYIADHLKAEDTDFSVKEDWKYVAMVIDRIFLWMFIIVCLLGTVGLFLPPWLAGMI
Test [5] addresses Muscarinic acetylcholine receptor M3 (Homo sapiens, UniProt P20309).
The target of a further test is Vasopressin V1a receptor (Homo sapiens, UniProt P37288).
Vasopressin V1a receptor, sequence (P37288 whole entry): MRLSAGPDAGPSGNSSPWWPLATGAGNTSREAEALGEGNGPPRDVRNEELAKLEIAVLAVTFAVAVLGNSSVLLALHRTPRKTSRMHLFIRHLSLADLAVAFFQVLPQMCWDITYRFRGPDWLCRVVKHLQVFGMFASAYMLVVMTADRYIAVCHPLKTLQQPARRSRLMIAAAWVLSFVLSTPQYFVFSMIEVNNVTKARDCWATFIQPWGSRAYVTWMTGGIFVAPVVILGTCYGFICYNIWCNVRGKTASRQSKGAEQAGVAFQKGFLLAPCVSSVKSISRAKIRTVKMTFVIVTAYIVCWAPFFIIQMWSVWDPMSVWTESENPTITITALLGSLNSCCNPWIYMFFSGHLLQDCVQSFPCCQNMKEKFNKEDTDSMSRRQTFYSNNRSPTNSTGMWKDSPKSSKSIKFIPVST
The target in test [6] is T5, Gastrin/cholecystokinin type B receptor (Homo sapiens, UniProt P32239).
T5 sequence (P32239 whole entry): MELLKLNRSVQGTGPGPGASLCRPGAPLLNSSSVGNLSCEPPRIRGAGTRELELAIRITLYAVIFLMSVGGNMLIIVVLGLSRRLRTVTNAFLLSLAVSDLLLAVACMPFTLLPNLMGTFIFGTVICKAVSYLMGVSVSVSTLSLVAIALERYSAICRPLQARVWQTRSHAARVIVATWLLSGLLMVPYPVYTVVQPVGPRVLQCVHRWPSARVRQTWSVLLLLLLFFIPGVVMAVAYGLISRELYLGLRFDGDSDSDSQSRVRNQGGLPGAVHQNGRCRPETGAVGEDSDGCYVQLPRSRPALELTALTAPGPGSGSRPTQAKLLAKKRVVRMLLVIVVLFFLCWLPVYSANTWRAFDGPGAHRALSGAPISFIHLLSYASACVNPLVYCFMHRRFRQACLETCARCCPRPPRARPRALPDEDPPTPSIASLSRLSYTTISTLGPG

A value given as a limit tells only on which side of the number the result lay.
Further: assay procedure not described here.

Muscarinic acetylcholine receptor M3, sequence (P20309 whole entry): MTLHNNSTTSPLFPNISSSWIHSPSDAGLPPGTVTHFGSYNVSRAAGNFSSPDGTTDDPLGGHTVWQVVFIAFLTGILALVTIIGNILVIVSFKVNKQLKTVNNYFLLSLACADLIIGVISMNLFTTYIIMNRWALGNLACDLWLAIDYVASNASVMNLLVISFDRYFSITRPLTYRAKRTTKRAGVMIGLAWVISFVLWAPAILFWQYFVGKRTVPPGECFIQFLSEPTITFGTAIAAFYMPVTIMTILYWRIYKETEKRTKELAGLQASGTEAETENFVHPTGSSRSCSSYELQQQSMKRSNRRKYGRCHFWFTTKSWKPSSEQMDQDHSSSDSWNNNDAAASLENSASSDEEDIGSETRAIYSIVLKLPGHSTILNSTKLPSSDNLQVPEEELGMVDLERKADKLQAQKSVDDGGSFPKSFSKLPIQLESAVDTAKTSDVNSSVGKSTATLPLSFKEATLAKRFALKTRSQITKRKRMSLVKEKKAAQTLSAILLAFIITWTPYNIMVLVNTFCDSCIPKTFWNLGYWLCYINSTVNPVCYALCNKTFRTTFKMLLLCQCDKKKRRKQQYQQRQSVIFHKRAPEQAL

Regarding `O=C(CCCCC(=O)Nc1c(I)cc(I)c(C(=O)O)c1I)Nc1c(I)cc(I)c(C(=O)O)c1I` [IODIPAMIDE], the AC50 in test [1] was above 10 µM; on Mu-type opioid receptor, above 30 µM; at Thromboxane A2 receptor it was above 10 µM; in test [2], above 10 µM; in test [3], above 30 µM; in test [4], above 10 µM. For the same compound, the AC50 is above 30 µM in [5] and above 10 µM at Vasopressin V1a receptor.
Turning to `CCCCCCCCOc1ccccc1C(=O)Nc1ccc(C(=O)OCC[N+](C)(CC)CC)cc1` [OTILONIUM BROMIDE], the AC50 is above 30 µM in [1]; above 30 µM on Mu-type opioid receptor; above 30 µM on Thromboxane A2 receptor; above 30 µM in test [3]; above 1 µM in [6]; above 30 µM in test [4]. Also, the half-maximal activity concentration (AC50) turned out to be 1.7 µM in test [5] and 13 µM on Vasopressin V1a receptor.
As for `COc1ccc(C(=O)N2CCN(c3ccc4c(c3)CCC(=O)N4)CC2)cc1OC` [VESNARINONE], the AC50 (in test [1]; on Mu-type opioid receptor; on Thromboxane A2 receptor; in test [3]; in [6]; in [4]) was above 30 µM throughout. The concentration at half-maximal activity (AC50) (in test [5]; at Vasopressin V1a receptor) was above 30 µM in each case.
With `Nc1nc2ccc(OC(F)(F)F)cc2s1` [RILUZOLE], the AC50 (in test [1]; at Mu-type opioid receptor; in test [2]; in test [3]; in [6]; in test [4]) was above 30 µM throughout. Also, the AC50 on Vasopressin V1a receptor was above 30 µM.
For `O=C1NCCN1CCN1CCC(c2cn(-c3ccc(F)cc3)c3ccc(Cl)cc23)CC1` [SERTINDOLE], the AC50 in test [1] was 22 µM; on Mu-type opioid receptor, above 30 µM; at Thromboxane A2 receptor, above 30 µM; in test [3] it was above 30 µM; in test [6] it was above 30 µM; in test [4], 17 µM. For the same compound, the concentration at half-maximal activity (AC50) in test [5] was 22 µM; on Vasopressin V1a receptor it was above 30 µM.
For `CCCCCCCCCCCC[N+](C)(C)CCOc1ccccc1` [DOMIPHEN], the AC50 in [1] was 28 µM; on Mu-type opioid receptor it was above 30 µM; at Thromboxane A2 receptor it was above 30 µM; in test [3], above 30 µM; in test [6], above 10 µM; in test [4], above 30 µM. Moreover, the results for the half-maximal activity concentration (AC50) (in test [5]; at Vasopressin V1a receptor) were 8.4 µM and 11 µM, respectively.
Take `O=C(O)Cc1cn(-c2ccccc2)nc1-c1ccc(Cl)cc1` [LONAZOLAC]: the AC50 on Mu-type opioid receptor is above 30 µM; on Thromboxane A2 receptor, above 30 µM; in test [3] it was above 30 µM; in test [6] it was above 10 µM; in test [4], above 30 µM; in [5], above 30 µM. The compound also had an AC50 at Vasopressin V1a receptor above 30 µM.
For the compound `CN1CCCN=C1COC(=O)C(O)(c1ccccc1)C1CCCCC1` (stereo not drawn) [OXYPHENCYCLIMINE], the AC50 in test [1] is above 10 µM; at Mu-type opioid receptor, above 30 µM; at Thromboxane A2 receptor it was above 10 µM; in test [2] it was above 10 µM; in test [3], above 30 µM; in test [4], above 10 µM. Further, the AC50 in test [5] was above 30 µM; on Vasopressin V1a receptor, above 10 µM.
`CC(C)[N+](C)(CCC(C(N)=O)(c1ccccc1)c1ccccc1)C(C)C` [ISOPROPAMIDE]: the AC50 is above 10 µM in test [1]; above 30 µM on Mu-type opioid receptor; above 10 µM at Thromboxane A2 receptor; above 10 µM in test [2]; above 30 µM in test [3]; above 10 µM in test [4]. Also, the AC50 in test [5] is 0.0056 µM; at Vasopressin V1a receptor, above 10 µM.
Consider `CCCCN1CCCCC1C(=O)Nc1c(C)cccc1C` (stereo not drawn) [BUPIVACAINE], for which the AC50 (in test [1]; on Mu-type opioid receptor; at Thromboxane A2 receptor; in [2]; in test [3]; in test [6]) was above 30 µM each time. In test [4], this compound had a half-maximal activity concentration (AC50) above 30 µM.
For `CC1=CC(=O)c2ccccc2C1=O` [MENADIONE], the concentration at half-maximal activity (AC50) in test [1] is 17 µM; on Mu-type opioid receptor, above 30 µM; on Thromboxane A2 receptor, above 10 µM; in test [2], above 10 µM; in test [3] it was above 30 µM; in test [4] it was above 10 µM. In addition, the half-maximal activity concentration (AC50) in [5] was above 30 µM; at Vasopressin V1a receptor, above 10 µM.
For the compound `CC(=O)OCC(=O)[C@@]12OC3(CCCC3)O[C@@H]1C[C@H]1[C@@H]3CCC4=CC(=O)C=C[C@]4(C)[C@@]3(F)[C@@H](O)C[C@@]12C` [AMCINONIDE], the AC50 in test [1] was above 10 µM; at Mu-type opioid receptor it was above 30 µM; on Thromboxane A2 receptor it was above 10 µM; in test [2] it was above 10 µM; in test [3] it was above 30 µM; in test [4], above 10 µM. Further, the AC50 was above 30 µM in test [5] and above 10 µM on Vasopressin V1a receptor.
In the case of `Cc1cc2c(OCC(CNC(C)(C)C)OC(=O)c3ccccc3)cccc2[nH]1` (stereo not drawn) [BOPINDOLOL], the AC50 in [1] was above 30 µM; on Mu-type opioid receptor it was above 30 µM; at Thromboxane A2 receptor, above 30 µM; in test [2] it was 0.028 µM; in test [3], above 30 µM; in test [6], above 30 µM. Besides, the AC50 (in test [4]; at Vasopressin V1a receptor) was above 30 µM in each case.
`C[C@]12CCC(=O)C=C1CC[C@@H]1[C@@H]2CC[C@@]2(C)[C@H]1CC[C@]2(C)O` [METHYLTESTOSTERONE]: the concentration at half-maximal activity (AC50) (in [1]; at Mu-type opioid receptor; at Thromboxane A2 receptor; in [2]; in test [3]; in test [6]) was above 30 µM in each case. This compound returned an AC50 in test [4] above 30 µM.
As for `CC(C)(Oc1ccc(C2CC2(Cl)Cl)cc1)C(=O)O` (stereo not drawn) [CIPROFIBRATE], the AC50 (in test [1]; at Mu-type opioid receptor; at Thromboxane A2 receptor; in test [2]; in test [3]; in test [6]) was above 30 µM throughout. This compound also gave an AC50 in test [4] above 30 µM.
Regarding `CN1C(=O)COc2c(C(=O)NC3CN4CCC3CC4)cc(Cl)cc21` (stereo not drawn) [AZASETRON], the AC50 in test [1] is above 30 µM; on Mu-type opioid receptor, above 30 µM; at Thromboxane A2 receptor, above 30 µM; in test [2], above 30 µM; in test [3] it was 0.0162 µM; in test [6], above 30 µM. Also, the concentration at half-maximal activity (AC50) (in test [4]; on Vasopressin V1a receptor) was above 30 µM throughout.
